The structures appear in SMILES notation.

For this experiment, the target named is T1, human ferroportin (Homo sapiens, UniProt Q9NP59).
T1 construct: luciferase reporter (probably NanoLuc: read with the Nano-Glo Luciferase Assay System); expressed in transfected cells; host or cells: CHO cells, stably transfected, doxycycline-inducible expression
T1 sequence (Q9NP59 1-571): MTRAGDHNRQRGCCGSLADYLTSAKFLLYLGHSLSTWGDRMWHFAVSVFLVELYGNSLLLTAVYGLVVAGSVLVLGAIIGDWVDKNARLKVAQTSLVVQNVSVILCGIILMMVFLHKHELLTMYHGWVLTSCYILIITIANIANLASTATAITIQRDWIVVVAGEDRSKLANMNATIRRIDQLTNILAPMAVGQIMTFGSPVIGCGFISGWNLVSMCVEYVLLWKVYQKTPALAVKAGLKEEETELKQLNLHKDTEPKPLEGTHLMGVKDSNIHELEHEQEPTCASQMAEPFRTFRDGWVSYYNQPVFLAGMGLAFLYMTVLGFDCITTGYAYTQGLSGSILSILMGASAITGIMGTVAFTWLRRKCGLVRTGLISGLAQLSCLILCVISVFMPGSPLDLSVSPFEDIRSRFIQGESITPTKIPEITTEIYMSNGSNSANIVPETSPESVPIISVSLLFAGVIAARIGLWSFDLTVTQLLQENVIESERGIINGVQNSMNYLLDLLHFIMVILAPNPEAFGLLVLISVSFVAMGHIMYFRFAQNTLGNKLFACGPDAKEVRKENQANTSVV
The experiment is described as follows: In-vitro ferroportin internalization assay (luciferase reporter). It counts as cell-based. Conditions: average pEC50; stably-transfected CHO cell line expressing human ferroportin tagged to a luciferase reporter; 6 h incubation with test compounds. In a few lines:
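CHO cells stably expressing human ferroportin fused to a luciferase reporter were plated 24 h with ferric ammonium citrate, then induced with doxycycline for 24 h. Compounds in DMSO were incubated with cells for 6 h before luciferase readout by Nano-Glo. Results are reported as average pEC50.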
(In general: Reporter assays use an easily measured gene product as a stand-in for the process of interest.)
Consider `O=C(NCc1ccc2[nH]c(CCNCCc3nc4c(NCc5ncccc5F)ncnc4s3)nc2c1)c1ccc2c(c1)C1(OC2=O)c2ccc(O)cc2Oc2cc(O)ccc21` [Compound 80], for which the pEC50 is given as <5.

Consider `Fc1cccnc1CNc1nccc2oc(C(F)(F)CNCCc3nc4ccccc4[nH]3)nc12` [Compound 81, 2-(2-{[2-(1H-1,3-benzodiazol-2-yl)ethyl]amino}-1,1-difluoroethyl)-N-[(3-fluoropyridin-2-yl)methyl]-[1,3]oxazolo[4,5-c]pyridin-4-amine], for which the pEC50 stood at 6.3.

Molecule `Fc1cccnc1CNc1nccc2sc([C@H](F)CNCCc3nc4ccccc4[nH]3)nc12` [Compound 82, 2-[(1R)-2-{[2-(1H-1,3-benzodiazol-2-yl)ethyl]amino}-1-fluoroethyl]-N-[(3-fluoropyridin-2-yl)methyl]-[1,3]thiazolo[4,5-c]pyridin-4-amine] registered a pEC50 of 6.4.

`Oc1nc(NCc2ncccc2F)c2nc([C@H](F)CNCCc3nc4ccccc4[nH]3)sc2n1` [Compound 83, 2-[(1R)-2-{[2-(1H-1,3-benzodiazol-2-yl)ethyl]amino}-1-fluoroethyl]-7-{[(3-fluoropyridin-2-yl)methyl]amino}-[1,3]thiazolo[5,4-d]pyrimidin-5-ol] showed a pEC50 of 7.1.

By pEC50 is commonly meant the negative decadic logarithm of the EC50, by convention in mol/L. A high value points to a small EC50.

The values above are taken from patent US11286243B2 (GLOBAL BLOOD THERAPEUTICS, INC., priority 2018, dated 2022).
